Experimental data from article PMC8805605, “Discovery of Dimeric Arylsulfonamides as Potent ADAM8 Inhibitors” (ACS Medicinal Chemistry Letters, 2021).

Legend:
MMP-12 = biological target: T1, MMP-12 (Homo sapiens, UniProt P39900); assay: MMP-12 fluorometric inhibition assay; assay type: biochemical; conditions: mean of three independent experiments in duplicate, read-out: In vitro inhibitory activity IC50 on MMP-12
T1 construct: purchased R&D Systems
Experimental: (§1) The newly synthesized bivalent derivatives 1–3 were then tested in vitro on human recombinant ADAM8 in comparison with JG26 by a fluorometric assay. The inhibitory activity against a panel of MMPs and ADAM10/17 was determined as well to assess their selectivity profile. […]
(§2) VI. Biological Activity on Isolated Enzymes
(§3) MMP and ADAM10 inhibition assays.
(§4) Recombinant human MMP-14 catalytic domain was a kind gift of Prof. Gillian Murphy (Department of […]
(§5) Oncology, University of Cambridge, UK). Pro-MMP-1, pro-MMP-2, and pro-MMP-9, were purchased […]
(§6) from Calbiochem (Merck-Millipore). Pro-MMP-12 and ADAM10 were purchased from R&D Systems.
(§7) Proenzymes were activated immediately prior to use with p-aminophenylmercuric acetate (APMA 2 […]
(§8) mM for 1 h at 37°C for MMP-2 and MMP-1, 1 mM for 1 h at 37°C for MMP-9). Pro-MMP-12 was […]
(§9) auto activated by incubating in the fluorometric assay buffer (FAB: Tris 50 mM, pH = 7.5, NaCl 150 […]
(§10) mM, CaCl2 10 mM, Brij 35 0.05% and DMSO 1%) for 30 h at 37°C. For assay measurements, each […]
(§11) inhibitor stock solution (DMSO, 10 mM) was further diluted in FAB at seven different concentrations.
(§12) Activated enzyme (final concentration 0.56 nM for MMP-2, 1.3 nM for MMP-9, 1.0 nM for MMP- […]
(§13) 14cd, 2.0 nM for MMP-1, 2.3 nM for MMP-12 and 20 nM for ADAM10) and inhibitor solutions were […]
(§14) incubated in the assay buffer for 3 h at 25 °C. ADAM10 was incubated for 1 h at 37°C in a different […]
(§15) was monitored every 10 sec. for 15 min. recording the increase in fluorescence (λ ex = 325 nm, λ em = […]
400 nm) using a Molecular Devices SpectraMax Gemini XPS plate reader. […]
(RFU). Percent of inhibition was calculated from control reactions without the inhibitor. IC50 was determined using the formula: v i/v o = 1/(1 + [I]/ IC50), where v i is the initial velocity of substrate cleavage in the presence of the inhibitor at concentration [I] and v o is the initial velocity in the absence of the inhibitor. Results were analyzed using SoftMax Pro software (version 5.4.3, Molecular Devices, Sunnyvale, CA) and Prism Software version 5.0 (GraphPad Software, Inc., La Jolla, CA, USA). […]

ADAM10 = biological target: T2, ADAM10 (Homo sapiens, UniProt O14672); assay: ADAM10 fluorometric inhibition assay; assay type: biochemical; conditions: mean of three independent experiments in duplicate, read-out: In vitro inhibitory activity IC50 on ADAM10
T2 construct: purchased R&D Systems
T2 sequence (O14672 214-748): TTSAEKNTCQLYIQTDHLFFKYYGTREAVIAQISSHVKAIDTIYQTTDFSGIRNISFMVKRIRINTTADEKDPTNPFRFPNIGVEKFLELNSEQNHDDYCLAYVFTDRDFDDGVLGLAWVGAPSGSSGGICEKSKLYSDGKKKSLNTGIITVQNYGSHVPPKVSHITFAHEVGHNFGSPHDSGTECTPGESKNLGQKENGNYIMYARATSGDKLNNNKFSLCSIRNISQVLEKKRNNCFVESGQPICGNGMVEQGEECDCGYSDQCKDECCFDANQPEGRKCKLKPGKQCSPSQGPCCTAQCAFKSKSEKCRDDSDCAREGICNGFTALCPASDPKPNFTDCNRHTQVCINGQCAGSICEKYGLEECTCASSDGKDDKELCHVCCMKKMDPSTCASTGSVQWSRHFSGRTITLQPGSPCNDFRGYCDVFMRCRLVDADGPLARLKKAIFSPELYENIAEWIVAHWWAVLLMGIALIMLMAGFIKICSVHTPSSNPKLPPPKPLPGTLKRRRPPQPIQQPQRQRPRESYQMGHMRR
Experimental: as §1, §2, §3, §4, §5, §6, §7, §8, §9, §10, §11, §12, §13, §14
buffer at pH 9 (Tris 25 mM, ZnCl2 25 µM, Brij-35 0.005 %). After the addition of 200 µM solution of […]
the fluorogenic substrate Mca-Lys-Pro-Leu-Gly-Leu-Dap(Dnp)-Ala-Arg-NH2 (Bachem) for all the […]
enzymes in DMSO (final concentration 2 µM for all enzymes, 10 µM for ADAM10), the hydrolysis […]
as §15
400 nm) using a Molecular Devices SpectraMax Gemini XPS plate reader. The assays were performed […]
in triplicate in a total volume of 200 μL per well in 96-well microtitre plates (Corning, black, NBS).
Control wells lack inhibitor. The MMP inhibition activity was expressed in relative fluorescent units […]
(RFU). Percent of inhibition was calculated from control reactions without the inhibitor. IC50 was determined using the formula: v i/v o = 1/(1 + [I]/ IC50), where v i is the initial velocity of substrate cleavage in the presence of the inhibitor at concentration [I] and v o is the initial velocity in the absence of the inhibitor. Results were analyzed using SoftMax Pro software (version 5.4.3, Molecular Devices, Sunnyvale, CA) and Prism Software version 5.0 (GraphPad Software, Inc., La Jolla, CA, USA).
ADAM8 and ADAM17 inhibition assays […]

T1 sequence (P39900 106-470): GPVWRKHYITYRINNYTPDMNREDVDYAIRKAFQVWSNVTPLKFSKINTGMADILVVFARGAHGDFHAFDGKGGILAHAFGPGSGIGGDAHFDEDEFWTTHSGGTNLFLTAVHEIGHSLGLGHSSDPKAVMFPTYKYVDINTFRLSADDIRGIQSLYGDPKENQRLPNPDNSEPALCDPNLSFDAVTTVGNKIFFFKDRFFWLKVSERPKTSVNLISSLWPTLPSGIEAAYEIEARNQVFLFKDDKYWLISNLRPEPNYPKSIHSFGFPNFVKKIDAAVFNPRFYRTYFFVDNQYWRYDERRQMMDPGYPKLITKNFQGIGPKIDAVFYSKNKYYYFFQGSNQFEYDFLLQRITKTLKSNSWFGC

Row | SMILES | IC50 (MMP-12) [nM] | IC50 (ADAM10) [nM]
1 | NC(=O)NCCC[C@@H](NS(=O)(=O)c1ccc(OCc2cc(Br)cc(Br)c2)cc1)C(=O)NO [JG26, reference compound] | 9.4 | 150
2 | O=C(NCCC[C@@H](NS(=O)(=O)c1ccc(OCc2cc(Br)cc(Br)c2)cc1)C(=O)NO)c1cccc(C(=O)NCCC[C@@H](NS(=O)(=O)c2ccc(OCc3cc(Br)cc(Br)c3)cc2)C(=O)NO)c1 [Compound 2] | 41 | 10000
3 | O=C(NCCC[C@@H](NS(=O)(=O)c1ccc(OCc2cc(Br)cc(Br)c2)cc1)C(=O)NO)NCCC[C@@H](NS(=O)(=O)c1ccc(OCc2cc(Br)cc(Br)c2)cc1)C(=O)NO [Compound 3] | – | 27400
4 | O=C(CCCNC(=O)c1cccc(C(=O)NCCCC(=O)NCCC[C@@H](NS(=O)(=O)c2ccc(OCc3cc(Br)cc(Br)c3)cc2)C(=O)NO)c1)NCCC[C@@H](NS(=O)(=O)c1ccc(OCc2cc(Br)cc(Br)c2)cc1)C(=O)NO [Compound 1] | 242 | 30600
